# Reference: patent US20130142815A1, “ALPHA-METHYL-TRYPTOPHAN AS AN INHIBITOR OF INDOLEAMINE DIOXYGENASE” (Georiga Health Sciences Univ. Research Inst., Inc., priority 2010, published 2013)
# Key:
# [1] = biological target: T1, indoleamine dioxygenase (IDO) (Mus musculus, UniProt P28776); experiment: Cell-free IDO inhibition assay with mouse intestinal mucosal lysates as the source of IDO; assay type: biochemical
# T1 construct: mouse intestinal mucosal lysates were used as the source of IDO in a cell-free assay system; from tissue; host or cells: mouse intestinal mucosa (lysate)
# T1 sequence (P28776 whole entry): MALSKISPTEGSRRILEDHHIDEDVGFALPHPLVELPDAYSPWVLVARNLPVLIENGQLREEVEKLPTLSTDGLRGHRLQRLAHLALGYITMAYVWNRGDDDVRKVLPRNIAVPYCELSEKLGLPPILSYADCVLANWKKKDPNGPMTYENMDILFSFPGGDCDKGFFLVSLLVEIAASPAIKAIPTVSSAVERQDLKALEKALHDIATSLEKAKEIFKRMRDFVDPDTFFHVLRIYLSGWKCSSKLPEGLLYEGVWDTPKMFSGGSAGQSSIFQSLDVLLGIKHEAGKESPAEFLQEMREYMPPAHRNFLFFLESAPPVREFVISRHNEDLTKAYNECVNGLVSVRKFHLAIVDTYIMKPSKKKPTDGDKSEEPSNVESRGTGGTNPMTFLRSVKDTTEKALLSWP
# Source text: FIG. 1 presents the comparative potencies of D-, L-, and DL-isomers of 1-methyltryptophan (1-MT) and alpha-methyltryptophan (alpha-MT) for inhibition of indoleamine dioxygenase (IDO). […] In these studies, mouse intestinal mucosal lysates were used as the source of IDO in a cell-free assay system. Thus, α-MLT will produce anti-cancer effects in vivo by two different, but synergistic, mechanisms. It will block the transport function of ATB^0,+ in tumor cells, thus preventing entry of essential amino acids and glutamine, and consequently causing growth arrest and apoptosis.
# ZR75.1 cells = experiment: Mouse xenograft, ZR75.1 ER-positive breast cancer cell line; assay type: in vivo; conditions: in drinking water (2 mg/ml)
# Method: (§1) Mouse xenograft studies were performed with two ER-positive breast cancer cell lines (ZR75.1 and MCF7) and one ER-negative breast cancer cell line (MB231). […] Plasma concentration of alpha-methyltryptophan in mice after two weeks of administration in drinking water was […] was not detectable in control mice.
# MCF7 cells = experiment: Mouse xenograft, MCF7 ER-positive breast cancer cell line; assay type: in vivo; conditions: in drinking water (2 mg/ml); in the presence of estrogen administration
# Method: as §1
# MB231 cells = experiment: Mouse xenograft, MB231 ER-negative breast cancer cell line; assay type: in vivo; conditions: in drinking water (2 mg/ml)
# Method: as §1
# mouse colon cancer cells = experiment: Mouse model of colon cancer, subcutaneous injection of mouse colon cancer cells; assay type: in vivo
# Method: Further, alpha-methyltryptophan was administered in a mouse model of colon cancer. Following subcutaneous injection of mouse colon cancer cells into mice, mice were treated with alpha-methyltryptophan, either in drinking water or by intraperintoneal injection.
# ATB0,+ [2] = biological target: T2, ATB0,+ (Homo sapiens, UniProt Q9UN76); conditions: cited from earlier work
# T2 sequence (Q9UN76 1-642): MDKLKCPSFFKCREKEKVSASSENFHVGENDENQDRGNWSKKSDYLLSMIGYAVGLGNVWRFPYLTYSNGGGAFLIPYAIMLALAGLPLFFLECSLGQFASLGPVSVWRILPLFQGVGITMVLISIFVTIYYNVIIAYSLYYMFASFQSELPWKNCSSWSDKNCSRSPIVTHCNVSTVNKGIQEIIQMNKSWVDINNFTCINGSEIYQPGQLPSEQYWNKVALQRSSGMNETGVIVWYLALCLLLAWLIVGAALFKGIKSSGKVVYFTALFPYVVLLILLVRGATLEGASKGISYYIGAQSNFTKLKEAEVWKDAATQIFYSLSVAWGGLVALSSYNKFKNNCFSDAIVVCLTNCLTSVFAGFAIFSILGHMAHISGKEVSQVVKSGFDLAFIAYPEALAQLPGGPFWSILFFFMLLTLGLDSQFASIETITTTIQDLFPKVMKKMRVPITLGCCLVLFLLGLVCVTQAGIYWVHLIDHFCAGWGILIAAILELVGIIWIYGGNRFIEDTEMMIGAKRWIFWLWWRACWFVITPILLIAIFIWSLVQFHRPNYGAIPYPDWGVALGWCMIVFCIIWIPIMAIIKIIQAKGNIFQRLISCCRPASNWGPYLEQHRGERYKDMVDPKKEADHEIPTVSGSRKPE
# ATB0,+ [3] = biological target: T2, ATB0,+; experiment: Inward currents in ATB0,+-expressing Xenopus oocytes; assay type: cell-based; design: expressed in transfected cells; host or cells: Xenopus oocytes
# Source text: Tryptophan is a substrate for ATB^0,+. […] Inhibition of glycine uptake could occur because α-MT is a transportable substrate for ATB^0,+ thus competing with glycine for the uptake process, or because it blocks the transporter without itself being transported. The Xenopus oocyte expression system can differentiate between these two modes of inhibition because transportable substrates would induce inward currents whereas blockers would not.
# Next, the potency of α-MT to block the transporter under conditions that simulate those in vivo was determined (with all naturally occurring amino acids present at physiologic concentrations). ATB^0,+ accepts all proteinogenic amino acids except glutamate and aspartate. Therefore, using the Xenopus oocyte expression system, the transport activity of human ATB^0,+ was monitored in the presence of an amino acid mixture consisting of all proteinogenic amino acids, each at its respective physiologic concentration found in plasma. Inward currents were detected under these conditions in oocytes expressing human ATB^0,+. α-MT blocked the ATB^0,+-mediated inward currents in the presence of these amino acids. The inhibition was dose-dependent; the concentration of the blocker necessary to elicit 50% maximal inhibition was 255±24 μM (Karunakaran et al., 2008, Biochem J; 414: 343-355).
# Although α-methyl-DL-tryptophan is a blocker of ATB^0,+, its potency is weak. […] The only commercially available α-methyltryptophan is the DL-form. Thus, an optical resolution method was developed to separate the L-isomer from the DL-form (FIG. 2). With this method, the L- and D-isomers of this compound were purified. The potencies of the two isomers as a blocker of ATB^0,+ was examined in Xenopus oocytes using the amino acid mixture simulating the plasma. The concentration of the L-isomer to elicit 50% maximal inhibition was 18±5 μM. This value is 14 times less than the corresponding value for the DL-form. With the D-isomer, the inhibition never increased beyond 40% even at 1 mM.
# ATB0,+ [4] = biological target: T2, ATB0,+; design: expressed in transfected cells; host or cells: Xenopus oocytes; conditions: tells transportable substrate from blocker; cited from earlier work
# IDO in DCs = biological target: T3, IDO in DCs (Mus musculus, UniProt P28776); experiment: Mixed lymphocyte reaction: suppression of CD8+ T cell proliferation by IDO-positive DCs, [3H]thymidine incorporation; assay type: cell-based
# T3 construct: endogenous in cells; host or cells: CD11c+ dendritic cells from a CpG 1826-treated C57Bl6 mouse
# T3 sequence (P28776 whole entry): as the sequence (P28776 whole entry) above
# Method: This example complements the cell-free in vitro measurements of IDO activity shown in Example 1 with a functional assay involving T cell proliferation. In this assay, CD8^+ T cells from a transgenic mouse (01.1) which carries the T-cell receptor specific for the ovalbumin peptide antigen Ser-Ile-Ile-Asn-Phe-Glu-Lys-Leu (SIINFEKL) were used. CD11c^+ dendritic cells (DCs) were also prepared from a C57B16 mouse that has been given CpG 1826 intravenously to induce IDO in DCs. A mixed lymphocyte reaction was then performed in which the ability of IDO-positive DCs to suppress the proliferation of CD8^+ T cells was monitored using [^3H]thymidine incorporation as the read-out. Thymidine incorporation in these T cells in the absence of DCs was taken as the control. When the T cells were cultured in the presence of IDO-positive DCs (10^5 cells), thymidine incorporation in T cells was suppressed by 63±3%. […] It is important to note that the concentration of α-MLT needed to inhibit IDO in DCs in this cell-based ex-vivo assay system (0.2 μM) is almost two orders of magnitude less than the IC50 observed for the inhibition of IDO in the cell-free assay system (˜20 μM). Based on these findings, it is expected that α-MLT will function as an anti-cancer agent in vivo by acting through two different mechanisms. […]
compound,measurement,setting,value
CC(N)(Cc1c[nH]c2ccccc12)C(=O)O (racemic) [α-methyl-DL-tryptophan],"potency as an IDO inhibitor (comparison, FIG. 1)",[1],significantly greater than that of 1-methyltryptophan
same,growth of ZR75.1 cells in xenograft,ZR75.1 cells,reduced growth
same,growth of MCF7 cells in xenograft,MCF7 cells,did not effect the growth
same,growth of MB231 cells in xenograft,MB231 cells,did not effect the growth
same,reduction of tumor growth,mouse colon cancer cells; in drinking water,approximately 50%
same,reduction of tumor growth,mouse colon cancer cells; intraperitoneal injection,approximately 50%
same,"effect on ATB0,+-mediated glycine uptake","ATB0,+ [2]",inhibited
same,"potency as a blocker of ATB0,+ (in words)","ATB0,+ [3]",weak
same,"induction of inward currents in ATB0,+-expressing Xenopus oocytes","ATB0,+ [4]",did not induce inward currents
"C[C@@](N)(Cc1c[nH]c2ccccc12)C(=O)O [D-isomer, α-methyl-D-tryptophan]",inhibition at 1000 µM,"ATB0,+ [3]; even at 1 mM, Xenopus oocytes, amino acid mixture simulating the plasma",≤ 40%
"C[C@](N)(Cc1c[nH]c2ccccc12)C(=O)O [α-MLT, α-methyl-L-tryptophan]","potency as an IDO inhibitor (comparison, FIG. 1)",[1],significantly more potent than the D-isomer
same,"potency as a blocker of ATB0,+ (in words)","ATB0,+ [3]",more potent than α-methyl-D-tryptophan
same,times less than the corresponding value for the DL-form,"ATB0,+ [3]; 50% maximal inhibition concentration, L-isomer vs DL-form",14 times
α-methyl-L-tryptophan [α-MLT],IC50,[1]; read-out: IC50 observed for the inhibition of IDO in the cell-free assay system,~20 µM
same,reversal of suppression of thymidine incorporation in T cells by IDO-positive DCs,"IDO in DCs; 0.2 μM, IDO-positive DCs (10^5 cells)",completely reversed
same,concentration needed to inhibit IDO in DCs in cell-based ex-vivo assay system,IDO in DCs; cell-based ex-vivo assay,0.2 µM
